Source: ChEMBL document CHEMBL1201862, “PubChem BioAssay data set” (2004)
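These data come from cells grown in 96-well plates and exposed to compound for 48 hours at five concentrations. GI50 marks 50% less growth.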 Calls of active or inactive are those of the source. No stated cut-off is given here; in the data, active = GI50 up to about 1.1 µM and inactive = higher.

What was measured:
Experiment in all cases: NCI anticancer screen, dose series, 48 h
786-0 = system: 786-0
A498 = system: A498
A549 = system: A549
ACHN = system: ACHN
BT-549 = system: BT-549
CAKI-1 = system: CAKI-1
CCRF-CEM = system: CCRF-CEM
DU-145 = system: DU-145
EKVX = system: EKVX
HCC 2998 = system: HCC 2998
HCT-116 = system: HCT-116
HCT-15 = system: HCT-15
HL-60 = system: HL-60
HOP-62 = system: HOP-62
HOP-92 = system: HOP-92
HT-29 = system: HT-29
Hs-578T = system: Hs-578T
IGROV-1 = system: IGROV-1
K562 = system: K562
KM12 = system: KM12
LOX IMVI = system: LOX IMVI
M14 = system: M14
MCF7 = system: MCF7
MDA-MB-231 = system: MDA-MB-231
MDA-MB-435 = system: MDA-MB-435
MDA-N = system: MDA-N
MOLT-4 = system: MOLT-4
Malme-3M = system: Malme-3M
NCI-H226 = system: NCI-H226
NCI-H23 = system: NCI-H23
NCI-H460 = system: NCI-H460
NCI-H522 = system: NCI-H522
NCI/ADR-RES = system: NCI/ADR-RES
OVCAR-3 = system: OVCAR-3
OVCAR-4 = system: OVCAR-4
OVCAR-5 = system: OVCAR-5
OVCAR-8 = system: OVCAR-8
PC-3 = system: PC-3
RPMI-8226 = system: RPMI-8226
RXF 393 = system: RXF 393
SF-268 = system: SF-268
SF-539 = system: SF-539
SK-MEL-28 = system: SK-MEL-28
SK-MEL-2 = system: SK-MEL-2
SK-OV-3 = system: SK-OV-3
SN12C = system: SN12C
SNB-19 = system: SNB-19
SNB-75 = system: SNB-75
SR = system: SR
SW-620 = system: SW-620
T47D = system: T47D
TK-10 = system: TK-10
U-251 = system: U-251
UACC-257 = system: UACC-257
UACC-62 = system: UACC-62
UO-31 = system: UO-31
COLO 205 = system: COLO 205
SF-295 = system: SF-295
SK-MEL-5 = system: SK-MEL-5

Measured: GI50

CC/C=C\C=C/C(=O)N/C=C/CCC
inactive: 786-0 > 100 µM | A498 23.5 µM | A549 > 100 µM | ACHN > 100 µM | BT-549 > 100 µM | CAKI-1 > 100 µM | CCRF-CEM 4.27 µM | DU-145 > 100 µM | EKVX > 100 µM | HCC 2998 23.3 µM | HCT-116 38.9 µM | HL-60 > 100 µM | HOP-62 > 100 µM | HOP-92 27.7 µM | HT-29 78.3 µM | Hs-578T > 100 µM | IGROV-1 > 100 µM | K562 > 100 µM | KM12 > 100 µM | LOX IMVI > 100 µM | M14 > 100 µM | MCF7 78.3 µM | MDA-MB-231 > 100 µM | MDA-MB-435 > 100 µM | MDA-N > 100 µM | MOLT-4 22.8 µM | Malme-3M > 100 µM | NCI-H226 > 100 µM | NCI-H23 > 100 µM | NCI-H460 > 100 µM | NCI-H522 17.5 µM | NCI/ADR-RES > 100 µM | OVCAR-3 58.3 µM | OVCAR-4 > 100 µM | OVCAR-5 > 100 µM | OVCAR-8 > 100 µM | PC-3 85.1 µM | RPMI-8226 40.2 µM | RXF 393 > 100 µM | SF-268 > 100 µM | SF-539 > 100 µM | SK-MEL-28 > 100 µM | SK-MEL-2 > 100 µM | SK-OV-3 > 100 µM | SN12C > 100 µM | SNB-19 > 100 µM | SNB-75 > 100 µM | SR 33.3 µM | SW-620 > 100 µM | T47D 62.8 µM | TK-10 > 100 µM | U-251 > 100 µM | UACC-257 > 100 µM | UACC-62 47.2 µM | UO-31 > 100 µM
> 100 µM: HCT-15

C[n+]1[n-]o/c(=N\N=O)c1-c1cc(-c2/c(=N/N=O)o[n-][n+]2C)cc(-c2/c(=N\N=O)o[n-][n+]2C)c1
> 100 µM: HCT-15
inactive: 786-0 > 100 µM | A498 > 100 µM | A549 > 100 µM | ACHN > 100 µM | BT-549 > 100 µM | CAKI-1 > 100 µM | CCRF-CEM > 100 µM | COLO 205 > 100 µM | DU-145 > 100 µM | EKVX > 100 µM | HCC 2998 > 100 µM | HCT-116 > 100 µM | HL-60 > 100 µM | HOP-62 > 100 µM | HOP-92 > 100 µM | HT-29 > 100 µM | Hs-578T > 100 µM | IGROV-1 > 100 µM | K562 > 100 µM | KM12 > 100 µM | LOX IMVI > 100 µM | M14 > 100 µM | MCF7 > 100 µM | MDA-MB-231 > 100 µM | MDA-MB-435 > 100 µM | MDA-N > 100 µM | MOLT-4 > 100 µM | Malme-3M > 100 µM | NCI-H226 > 100 µM | NCI-H23 > 100 µM | NCI-H460 > 100 µM | NCI-H522 > 100 µM | NCI/ADR-RES > 100 µM | OVCAR-3 > 100 µM | OVCAR-4 > 100 µM | OVCAR-5 > 100 µM | OVCAR-8 > 100 µM | PC-3 > 100 µM | RPMI-8226 > 100 µM | RXF 393 > 100 µM | SF-268 > 100 µM | SF-295 > 100 µM | SF-539 > 100 µM | SK-MEL-28 > 100 µM | SK-MEL-2 > 100 µM | SK-MEL-5 > 100 µM | SK-OV-3 > 100 µM | SN12C > 100 µM | SNB-19 > 100 µM | SNB-75 68.1 µM | SR > 100 µM | SW-620 > 100 µM | T47D > 100 µM | TK-10 > 100 µM | U-251 > 100 µM | UACC-257 > 100 µM | UACC-62 > 100 µM | UO-31 > 100 µM
